Source: patent publication US20200022936A1, “COMBINATIONS OF DICLOFENAC, H2 RECEPTOR ANTAGONISTS AND ALKALI METAL BICARBONATES FOR THE TREATMENT OF PAIN AND INFLAMMATION” (priority 2017, published 2020)

Assay: in vivo
Set-up: species or system Wistar rats
Conditions: male, Wistar, rat, po
From the text: The primary objective of the test was to compare the pharmacokinetics of diclofenac potassium when used as a single active compound with diclofenac potassium in combination with famotidine and/or potassium bicarbonate. In this experimental study, the aim was to observe how the addition of potassium bicarbonate to diclofenac and famotidine would change the pharmacokinetic properties of diclofenac potassium when diclofenac potassium is given alone or in combination with famotidine and/or potassium bicarbonate.
Male Wistar rats (240-260 g) were used in the study. The rats were maintained in an air-conditioned animals quarter at a temperature of 22±2° C. and a relative humidity of 50±10%. Food and water were allowed ad libitum. The animals were acclimatized to the facilities for five days, and then fasted with free access to water for 12 h prior to the experiment. All the animals were housed under similar conditions.
Bioavailability and pharmacokinetics of diclofenac were studied in all the normal state of rats following an oral administration of 1 mg/kg diclofenac potassium, 0.4 mg/kg famotidine and 0.72 mg/kg or 0.36 mg/kg potassium bicarbonate in different occasions. Each rat was further subjected to similar studies after administration of diclofenac potassium and/or diclofenac in combination with famotidine. A total of 30 rats were used in the study divided into 5 groups, each group was administered; diclofenac alone, or 4 different combinations of diclofenac as outlined below.
Six male and/or female rats per group were lavaged with 1 mg/kg Diclofenac potassium and combinations at a dosing volume of 2 ml/kg. Blood (0.2 ml) was taken from the tail vein prior to administration of test substances (0 h) and after 0.083, 0.167, 0.25, 0.5, 1, 2, 4, 8 and 12 h.
Blood samples were collected in tubes containing %5 Na2-EDTA and kept on ice until 50 ul dichloromethane was added and they were centrifuged at 7000×g for 5 min at 4° C. and supernatants were collected for LC/MSMS analysis.

Compound `O=C(O)Cc1ccccc1Nc1c(Cl)cccc1Cl` [Diclofenac-K, 2[(2,6-dichlorophenyl)amino]benzeneacetic acid] has a Cmax of 1.26 µg/mL, a Tmax of diclofenac of 15 min and an AUC(0-t) (1 mg/kg) of 7.51 µg·h/mL. For the same compound, the Cmax (1 mg/kg) was 1.262 ± 4.8e-05 µg/mL, the Tmax (1 mg/kg) was 15 min and the “Blood Concentrations of Diclofenac Potassium” value (from here on “Blood Concentrations”) (1 mg/kg, 0.083 h) was 1.096 ± 0.054. For the same compound, the “Blood Concentrations” value (1 mg/kg, 0.25 h) was 1.262 ± 0.048, the “Blood Concentrations” value (1 mg/kg, 0.5 h) was 1.078 ± 0.137 and the “Blood Concentrations” value (1 mg/kg, 1 h) was 0.943 ± 0.015. The “Blood Concentrations” value (1 mg/kg, 2 h) was 0.600 ± 0.159, the “Blood Concentrations” value (1 mg/kg, 4 h) was 0.600 ± 0.015 and the “Blood Concentrations” value (1 mg/kg, 8 h) was 0.578 ± 0.033. The “Blood Concentrations” value (1 mg/kg, 12 h) was 0.486 ± 0.092.
